# Results published in patent US10894038B2, “Indolizine derivatives, composition and methods of use” (Shanghai Fochon Pharmaceutical Co., Ltd., priority 2015, dated 2021).
# How the values were obtained:
# URAT1 = URAT1 (Homo sapiens (Human), UniProt Q96S37); assay: URAT1 in vitro inhibition activity, Method A (14C-uric acid uptake in HEK293-URAT-4 cells); format: cell-based; conditions: 50 μM 14C-uric acid, 10 min uptake
# Experimental: The potency of the compounds of formula (I) as inhibitors of the URAT1 was determined as follow.
# Cell Lines were generated in WuXi AppTec (HEK293-URAT-4: Stable cell line of HEK293 which was transfected with pcDNA3.1-URAT (Human SLC22A12 cDNA Clone, Abgent-DC07943). HEK293-PCDNA-5: Negative control cell of HEK293 which was transfected with pcDNA3.1 empty vector.
# Cells were seeded onto 24-well plates at the density of 2.0×10^5 cells per well. The cells were incubated at 37° C., 5% CO2 overnight. After approximately 24 hours culture, cells were used for uptake experiments. The culture medium were removed from the wells and the cells were incubated in 0.4 ml/well of Hank's balanced salt solution (HBSS) for 10 min. HBSS was replaced with 0.18 ml/well fresh HBSS. Compounds were 5 folds serial diluted in DMSO, and then 25 folds diluted in HBSS. Compounds diluted with HBSS (10 μl) were added to relevant well of cell plates, and plates were incubated at 37° C., 5% CO2 for 15 min. The final concentration of DMSO in the assay was 0.2%. 10 μl HBSS containing radioactively labeled Urate (^14C-uric acid) was added to each well. The final concentration of ^14C-uric acid in the assay medium was 50 μM. After 10 min, the assay medium was immediately removed. The cells were washed quickly with 0.5 ml pre-chilled HBSS twice. 0.1 M NaOH (0.4 ml) was added to lyse the cells for at least 20 min. The cell lysate was collected to a scintillation vial, and scintillant (4 ml) was added and the radioactivity was counted by a liquid scintillation counter. Inhibiton % data were calculated using the formula
# [formula] CPD: Signal from a well containing a test compound HC (high control): Average of signals from HEK293-URAT-4 cells LC (low control): Average of signals from HEK293-PCDNA-5.
# [1] = test system: potassium oxonate-induced hyperuricemia in rats; assay: Effect on potassium oxonate-induced hyperuricemia in rats (serum uric acid); format: in vivo, rat; conditions: male SD rats, 5 mg/kg oral; for serum uric acid levels, time after dosing 0.5 h: 0.5 h after dosing; for serum uric acid levels, time after dosing 1 h: 1 h after dosing; for serum uric acid levels, time after dosing 2 h: 2 h after dosing; for serum uric acid levels, time after dosing 3 h: 3 h after dosing; for serum uric acid levels, time after dosing 4 h: 4 h after dosing
# Experimental: Healthy male SD rats, weighing 250±20 g, were used. In the experiment, except for 10 rats as normal control group were orally administered with distilled water, the others were orally administered with yeast extract (20 g/kg, qd×5 days). One hour after last administration, all the rats were intraperitoneal injection with 250 mg/kg potassium oxonate while normal control group was treated with an equal volume of 0.5% CMC-Na (injection volume of 2 ml/kg). After one hour, rats were anesthetized with isoflurane and the serum uric acid was determined by uric acid test strip. All the rats were divided into groups by uric acid. The model control group and experimental groups was given orally administration 0.5% CMC-Na or compounds with a dose of 10 ml/kg-bw. Phosphotungstic acid precipitation method was used to detect serum uric acids in inner canthus blood at 0.5, 1, 2, 3, 4 h after administration, respectively. Substantially, observing the effects of compounds on serum uric acids levels and calculating each of groups' AUC and the inhibition of uric acid increased area by the equation as follows: […]
# As shown in the equation, AUC0 indicated the AUC of model control group, AUC1 indicated the AUC of therapy group, AUC2 indicated the AUC of normal control group.
# URAT1, sequence (Q96S37 whole entry): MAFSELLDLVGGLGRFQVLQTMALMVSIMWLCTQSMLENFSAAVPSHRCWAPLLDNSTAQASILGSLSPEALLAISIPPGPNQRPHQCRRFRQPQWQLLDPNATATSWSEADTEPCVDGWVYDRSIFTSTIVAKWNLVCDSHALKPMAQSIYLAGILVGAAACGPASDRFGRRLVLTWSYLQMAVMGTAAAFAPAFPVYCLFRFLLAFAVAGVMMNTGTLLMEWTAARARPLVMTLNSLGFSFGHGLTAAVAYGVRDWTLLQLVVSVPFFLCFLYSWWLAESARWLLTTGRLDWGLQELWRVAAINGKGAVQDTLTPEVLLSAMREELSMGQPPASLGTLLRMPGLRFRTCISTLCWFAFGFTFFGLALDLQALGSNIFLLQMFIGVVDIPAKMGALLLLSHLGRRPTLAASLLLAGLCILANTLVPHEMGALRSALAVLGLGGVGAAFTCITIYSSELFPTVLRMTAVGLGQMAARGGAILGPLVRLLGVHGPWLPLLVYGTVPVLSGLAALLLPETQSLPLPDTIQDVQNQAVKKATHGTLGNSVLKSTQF
SMILES,IC50 (URAT1),"serum uric acid levels, time after dosing 0.5 h [1]","serum uric acid levels, time after dosing 1 h [1]","serum uric acid levels, time after dosing 2 h [1]","serum uric acid levels, time after dosing 3 h [1]","serum uric acid levels, time after dosing 4 h [1]"
"N#Cc1ccc(-c2cnccc2SC2(C(=O)O)CCC2)n2cccc12 [Example 1, 1-((3-(8-Cyanoindolizin-5-yl)pyridin-4-yl)thio)cyclobutane-1-carboxylic acid]",30 nM,492.8 ± 82.4 µmol/L,506.0 ± 88.5 µmol/L,407.7 ± 100.7 µmol/L,343.2 ± 84.3 µmol/L,289.8 ± 77.8 µmol/L
"Cc1cc2c(C#N)ccc(-c3cnccc3SC3(C(=O)O)CCC3)n2c1 [Example 5, 1-((3-(8-cyano-2-methylindolizin-5-yl)pyridin-4-yl)thio)cyclobutane-1-carboxylic acid]",110 nM,,,,,
"N#Cc1ccc(-c2cnccc2SC2(C(=O)O)CCC2)n2cc(C(F)(F)F)cc12 [Example 7, 1-((3-(8-cyano-2-(trifluoromethyl)indolizin-5-yl)pyridin-4-yl)thio)cyclobutane-1-carboxylic acid]",44 nM,485.3 ± 79.3 µmol/L,510.0 ± 103.7 µmol/L,460.6 ± 87.4 µmol/L,381.3 ± 84.3 µmol/L,307.9 ± 71.0 µmol/L
